Patent US20100069501A1, “Pharmaceutical Composition Comprising 6-Dimethylaminomethyl-1-(3-methoxy-phenyl)-cyclohexane-1,3-diol and Paracetamol” (GRUENENTHAL GmbH, priority 2008, published 2010)
Structures can show the parent of a compound that is named as a salt.

System: inflammatory pain
Assay: Randall-Selitto test in rats (carrageenan-induced acute inflammation, mechanical nociceptive threshold)
Assay type: in vivo
Conditions: rat; for time point of peak effect: substance applied alone, A i.v., paracetamol i.p.
Procedure: The weight ratios of the components (a) and (b) that will lead to a supra-additive effect (synergistic effect) of the inventive pharmaceutical composition may be determined via the test of Randall and Selitto as described in Arch. Int. Pharmacodyn., 1957, 111: 409 to 419, which is a model for inflammatory pain. The respective part of the literature is hereby incorporated by reference and forms part of the present disclosure.
Acute inflammation is induced by an intraplantar injection of 0.1 ml of a carrageenan solution (0.5% in distilled water) into one hind paw. The mechanical nociceptive threshold is measured 4 hours after carrageenan injection using an Algesiometer (Ugo Basile, Italy). The device generates a mechanical force with a linear increase over time. The force is applied to the dorsal surface of the inflamed rat hind paw via a cone-shaped stylus with a rounded tip (2 mm tip diameter). The nociceptive threshold is defined as the force (in grams) at which the rat vocalises (cut-off force 250 g). […] The antinociceptive and antihyperalgesic activity of the tested substance is expressed as percentages of the maximal possible effect (% MPE). The group size is n=10.
The interactions studies presented herein were performed using equieffective doses of the two components, calculated from the ratio of the respective ED50 values of the components if administered alone.
Thus, the time point of ED50 calculation of the combination corresponds to the timepoint of the peak effect of the respective compound.

## COc1cccc([C@@]2(O)C[C@H](O)CC[C@@H]2CN(C)C)c1 (racemic) [A, (1RS,3RS,6RS)-6-dimethylaminomethyl-1-(3-methoxy-phenyl)-cyclohexane-1,3-diol hydrochloride]
iv, 0.25 h, i.v., 15 min p. appl. (peak effect), % MPE, n=10, read-out: ED50 of A applied alone
  ED50: 15.8 mg/kg
  time point of peak effect: 15 min

## CC(=O)Nc1ccc(O)cc1 [Paracetamol]
  time point of peak effect: 120 min
